From ChEMBL document CHEMBL3351872, “2- and 3-substituted imidazo[1,2-a]pyrazines as inhibitors of bacterial type IV secretion” (Bioorg Med Chem, 2014) come the findings set out here.

A short description of the assay: Inhibition of Helicobacter pylori VirB11 HP0525 ATPase expressed in Escherichia coli assessed as reduction in inorganic phosphate release by colorimetric ATPase assay.
As a reminder, the IC50 is the concentration that inhibits the measured activity by half. As for `Cc1ccc(S(=O)(=O)Nc2nccn3c(-c4ccc5ccccc5c4)cnc23)cc1`, the IC50 stood at 77 µM.
Take `Cc1ccc(S(=O)(=O)Nc2ccc(Nc3nc(Br)cn4cc(-c5ccc6ccccc6c5)nc34)cc2)cc1`: the IC50 came out at 6 µM.
On to `Cc1ccc(S(=O)(=O)NCCNc2nc(Br)cn3cc(-c4ccc5ccccc5c4)nc23)cc1`, for which the half-inhibitory concentration (IC50) came out at 77 µM.
